Molecular target: T1, mAChR M4 (Homo sapiens, UniProt P08173)
T1 construct: expressed in transfected cells; host or cells: CHO-K1 cells, also stably transfected with the chimeric G-protein Gqi5
T1 sequence (P08173 1-479): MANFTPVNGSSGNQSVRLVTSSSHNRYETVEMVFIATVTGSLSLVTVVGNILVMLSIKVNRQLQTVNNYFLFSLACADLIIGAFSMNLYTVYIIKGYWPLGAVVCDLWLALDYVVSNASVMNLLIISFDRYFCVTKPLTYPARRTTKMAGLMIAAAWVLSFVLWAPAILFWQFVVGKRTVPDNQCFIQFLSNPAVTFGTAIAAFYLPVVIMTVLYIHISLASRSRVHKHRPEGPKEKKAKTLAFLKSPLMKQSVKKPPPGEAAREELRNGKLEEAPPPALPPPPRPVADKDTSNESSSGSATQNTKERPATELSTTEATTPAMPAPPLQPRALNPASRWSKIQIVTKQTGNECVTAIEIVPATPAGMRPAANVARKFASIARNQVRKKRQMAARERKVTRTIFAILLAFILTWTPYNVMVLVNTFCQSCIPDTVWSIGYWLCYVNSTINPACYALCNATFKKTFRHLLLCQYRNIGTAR
Experiment: mAChR M4 cell-based functional assay (calcium mobilization, potentiation of EC20 acetylcholine response)
Conditions: for EC50: CHO-K1 cells expressing mAChR M4 (Gqi5), calcium flux, increase in EC20 acetylcholine response, >10,000 estimated where the curve has no plateau; for Emax at 30 µM: % ACh maximum at 30 μM
Text: Chinese hamster ovary (CHO-K1) cells stably expressing rat (r)M1 were purchased from the American Type Culture Collection and cultured according to their indicated protocol. CHO cells stably expressing human (h)M2, hM3, and hM5 were described previously (Levey et al., 1991); hM1 and hM4 cDNAs were purchased from Missouri S&T cDNA Resource; rM4 cDNA was provided by T. I. Bonner (National Institutes of Health, Bethesda, Md.). rM2 and rM3 were cloned from a rat brain cDNA library and sequence verified. hM1, rM2, rM3, hM4, and rM4 cDNAs were used to stably transfect CHO-K1 cells purchased from the American Type Culture Collection using Lipofectamine 2000. To make stable rM2, hM2, hM4, and rM4 cell lines for use in calcium mobilization assays, these cells also were stably transfected with a chimeric G-protein (Gqi5) (provided by B. R. Conklin, University of California, San Francisco) using Lipofectamine 2000. rM1, hM1, rM3, hM3, rM5, and hM5 cells were grown in Ham's F-12 medium containing 10% heat-inactivated fetal bovine serum (FBS), 20 mM HEPES, and 50 µg/mL G418 sulfate. rM2-Gqi5, hM2-Gqi5, and hM4-Gqi5 cells were grown in the same medium also containing 500 µg/mL Hygromycin B. Stable rM4-Gqi5 cells were grown in DMEM containing 10% heat-inactivated FBS, 20 mM HEPES, 400 μg/mL G418 sulfate, and 500 μg/mL Hygromycin B.
For high throughput measurement of agonist-evoked increases in intracellular calcium, CHO-K1 cells stably expressing muscarinic receptors were plated in growth medium lacking G418 and hygromycin at 15,000 cells/20 μL/well in Greiner 384-well black-walled, tissue culture (TC)-treated, clear-bottom plates (VWR). Cells were incubated overnight at 37° C. and 5% CO2. The next day, cells were washed using an ELX 405 (BioTek) with four washes (80 μL) of assay buffer then aspirated to 20 μL. Next, 20 μL of 16 μM Fluo-4/acetoxymethyl ester (Invitrogen, Carlsbad, Calif.) prepared as a 2.3 mM stock in DMSO and mixed in a 1:1 ratio with 10% (w/v) Pluronic F-127 and diluted in assay buffer was added to the wells and the cell plates were incubated for 50 min at 37° C. and 5% CO2. Dye was removed by washing with the ELX 405 (four 80 μL washes of assay buffer) then aspirated to 20 μL. Compound master plates were formatted in an 11 point CRC format (1:3 dilutions) in 100% DMSO with a starting concentration of 10 mM using the BRAVO liquid handler (Agilent). Test compound CRCs were then transferred to daughter plates (240 nL) using the Echo acoustic plate reformatter (Labcyte, Sunnyvale, Calif.) and then diluted into assay buffer (40 μL) to a 2× stock using a Thermo Fisher Combi (Thermo Fisher Scientific, Waltham, Mass.).
Calcium flux was measured using the Functional Drug Screening System (FDSS) 6000 (Hamamatsu Corporation, Tokyo, Japan) as an increase in the fluorescent static ratio. Compounds were applied to cells (20 μL, 2×) using the automated system of the FDSS 6000 at 4 s into the 300 s protocol and the data were collected at 1 Hz. At 144 s into the 300 s protocol, 10 μL of an EC20 concentration of the muscarinic receptor agonist acetylcholine was added (5×), followed by the addition of 12 μL an EC80 concentration of acetylcholine at the 230 s time point (5×). Agonist activity was analyzed as a concentration-dependent increase in calcium mobilization upon compound addition. Positive allosteric modulator activity was analyzed as a concentration-dependent increase in the EC20 acetylcholine response. Antagonist activity was analyzed as a concentration-dependent decrease in the EC80 acetylcholine response. Concentration-response curves were generated using a four-parameter logistical equation in XLFit™ curve fitting software (IDBS, Bridgewater, N.J.) for Excel (Microsoft, Redmond, Wash.) or Prism (GraphPad Software, Inc., San Diego, Calif.). […]

Row | Compound | EC50 | Emax at 30 µM
1 | Cc1nnc2sc(C(=O)NCc3ccc(S(=O)(=O)C(F)(F)F)cc3)c(Br)c2c1C [B1] | > 10 µM | 
2 | COc1ccc(CNC(=O)c2sc3nnc(C)c(C)c3c2Br)cc1 [B2] | 3.7 µM | 36%
3 | Cc1nnc2sc(C(=O)NC3CN(c4ccc(C(F)(F)F)nc4)C3)cc2c1C [B3] | 1 µM | 53%
4 | COc1ccc(CNC(=O)c2sc3nnc(C)c(C)c3c2C)cc1F [B9] | 2 µM | 59%
5 | Cc1nnc2sc(C(=O)NC3CC3)c(C3CC3)c2c1C [B11] | > 10 µM | 35%
6 | COc1ccc(C2CC2NC(=O)c2sc3nnc(C)c(C)c3c2C)cc1 (centres unmarked) [B21] | 2.1 µM | 51%
7 | Cc1nnc2sc(C(=O)NC3COC3)c(C3CC3)c2c1C [B13] | ~9 µM | 46%
8 | Cc1nnc2sc(C(=O)NC3CN(c4ccc(C(F)(F)F)nc4)C3)c(C3CC3)c2c1C [B22] | 3.1 µM | 24%
9 | Cc1nnc2sc(C(=O)NC3COC3)cc2c1C [B6] | 3.9 µM | 76%
10 | Cc1nnc2sc(C(=O)N3CCC(c4ccccc4)C3)c(C3CC3)c2c1C (centres unmarked) [B16] | > 10 µM | 
11 | COc1ccc(CNC(=O)c2cc3c(C)c(C)nnc3s2)cc1F [B4] | 1.4 µM | 68%
12 | Cc1nnc2sc(C(=O)NC3COC3)c(C)c2c1C [B23] | > 10 µM | 65%
13 | Cc1nnc2sc(C(=O)N3CCC(c4ccccc4)C3)c(C)c2c1C (centres unmarked) [B19] | > 10 µM | 
14 | Cc1nnc2sc(C(=O)NC3CC3)cc2c1C [B7] | 4.3 µM | 72%
15 | COc1ccc(CNC(=O)c2sc3nnc(C)c(C)c3c2C2CC2)cc1F [B18] | 4.4 µM | 38%
16 | Cc1nnc2sc(C(=O)NC3CC3)c(C)c2c1C [B14] | > 10 µM | 68%
17 | Cc1nnc2sc(C(=O)NC3CCN(c4ccccc4)C3)cc2c1C (centres unmarked) [B5] | > 10 µM | 
18 | Cc1nnc2sc(C(=O)NC3CCC3)c(C3CC3)c2c1C [B15] | 5.2 µM | 33%
19 | Cc1nnc2sc(C(=O)N3CC(c4ccccc4)C3)c(C3CC3)c2c1C [B8] | > 10 µM | 
20 | Cc1nnc2sc(C(=O)NC3CN(c4cccnc4)C3)c(C)c2c1C [B20] | 0.91 µM | 69%
21 | Cc1nnc2sc(C(=O)NC3CC(F)(F)C3)c(C3CC3)c2c1C [B17] | > 10 µM | 35%
22 | COc1ccc(C2CC2NC(=O)c2sc3nnc(C)c(C)c3c2C2CC2)cc1 (centres unmarked) [B12] | > 10 µM | 
